According to publication PMC8536575, “Acute effects of the imidacloprid metabolite desnitro-imidacloprid on human nACh receptors relevant for neuronal signaling” (Archives of Toxicology, 2021):

Target: T1, human α4β4 nAChR (Homo sapiens, UniProt P30926+P43681)
T1 construct: expressed in transfected cells; host or cells: Xenopus laevis oocytes, mRNA injection, 3.33 ng α4 and 3.33 ng β4
Assay: Two-electrode voltage-clamp recordings, Xenopus laevis oocytes expressing human α4β4 nAChR
Format: cell-based
Description: The human α7 nAChR subunit was cloned in the pCDNA3.1 vector.
For the generation of the mRNA for injection, the plasmid DNAs of α3, α4, β2, and β4 were linearized with the NotI restriction endonuclease (New England Biolabs) and the plasmid DNA of α7 was linearized with the XbaI restriction endonuclease (New England Biolabs). The mRNAs of α3, α4, β2, and β4 were generated by in vitro transcription using the mMESSAGE mMACHINE SP6 Transcription Kit (Invitrogen). For the generation of α7 mRNA, the mMESSAGE mMACHINE T7 Transcription Kit (Invitrogen) was used. For the separation of the DNA and mRNA, a phenol–chloroform extraction (Chomczynski and Sacchi [2006]) was performed. The mRNA was then obtained by ethanol precipitation from the aqueous phase; for quantification, the BioPhotometer (Eppendorf) was used.
The recordings of human α7, α3β4, α4β2, and α4β4 nAChRs expressed in Xenopus laevis oocytes (EcoCyte Bioscience) were performed in two-electrode voltage-clamp mode using the Roboocyte2 system and the corresponding software (version 1.4.1; Multi Channel Systems MCS). Prior to the recordings, the oocytes were maintained at 19 °C in modified Barth’s solution containing [mM]: 88 NaCl, 1 KCl, 0.33 Ca(NO3)2, 0.82 MgSO4, 2.4 NaHCO3, 0.41 CaCl2, 5 Tris, 100 U/ml penicillin, 100 µg/ml streptomycin, pH 7.4.
To express human α7 nAChR, we injected 50 nl of mRNA solution (30 ng mRNA) per oocyte, using the Roboinject and the corresponding software (version 1.2.1; Multi Channel Systems MCS). […]
The baseline correction of voltage-clamp oocyte recordings was performed with the Roboocyte2 + software (version 1.4.3; Multi Channel Systems MCS, Germany). The maximal current influx and further analysis were executed in scripts written in R. In the antagonist experiments with oocytes, the maximal inward current was determined for the last response of each period (control, three antagonist concentrations, and washout).

T1 sequence (P43681 27-627): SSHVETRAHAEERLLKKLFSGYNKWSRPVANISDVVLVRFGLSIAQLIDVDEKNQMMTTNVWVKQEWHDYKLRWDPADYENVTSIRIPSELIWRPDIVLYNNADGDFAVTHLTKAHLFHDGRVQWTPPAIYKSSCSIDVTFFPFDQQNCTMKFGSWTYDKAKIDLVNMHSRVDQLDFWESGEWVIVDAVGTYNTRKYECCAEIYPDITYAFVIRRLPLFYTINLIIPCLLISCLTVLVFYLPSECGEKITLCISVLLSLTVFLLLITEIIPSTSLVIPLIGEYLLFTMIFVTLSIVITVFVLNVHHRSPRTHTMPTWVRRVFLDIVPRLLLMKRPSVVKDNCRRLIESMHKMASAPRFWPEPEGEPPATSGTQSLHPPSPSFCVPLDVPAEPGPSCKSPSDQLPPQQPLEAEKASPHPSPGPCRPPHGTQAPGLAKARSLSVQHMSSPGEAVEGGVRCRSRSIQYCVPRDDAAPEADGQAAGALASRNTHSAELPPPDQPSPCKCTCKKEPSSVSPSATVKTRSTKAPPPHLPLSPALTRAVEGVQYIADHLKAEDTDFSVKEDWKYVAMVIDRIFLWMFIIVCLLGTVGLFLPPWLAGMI
T1 sequence (P30926 22-498): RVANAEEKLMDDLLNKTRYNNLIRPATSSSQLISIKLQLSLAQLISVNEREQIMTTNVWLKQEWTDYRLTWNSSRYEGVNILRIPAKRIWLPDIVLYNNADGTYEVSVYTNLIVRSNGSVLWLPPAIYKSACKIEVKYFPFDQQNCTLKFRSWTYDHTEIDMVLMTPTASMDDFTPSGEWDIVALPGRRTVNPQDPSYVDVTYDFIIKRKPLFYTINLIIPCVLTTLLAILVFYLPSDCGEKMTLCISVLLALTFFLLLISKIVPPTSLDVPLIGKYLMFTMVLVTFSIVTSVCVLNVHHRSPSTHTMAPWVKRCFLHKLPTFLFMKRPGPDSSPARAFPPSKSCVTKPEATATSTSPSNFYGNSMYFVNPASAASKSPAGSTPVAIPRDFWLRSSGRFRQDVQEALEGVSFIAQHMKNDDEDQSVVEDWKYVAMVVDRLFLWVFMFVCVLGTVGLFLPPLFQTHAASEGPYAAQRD

NC1=NCCN1Cc1ccc(Cl)nc1 [DN-IMI, desnitro-imidacloprid] was tested, and the estimated maximum (normalized to nicotine (100 µM)) was ~ 0.97 and the EC50 (read-out: relative pEC50 (inward current amplitude) (converted)) was 3.16 µM.
